Measurements taken from publication PMC3985586, “Cratoxylum formosum (Jack) Dyer ssp. pruniflorum (Kurz) Gogel. (Hóng yá mù) extract induces apoptosis in human hepatocellular carcinoma HepG2 cells through caspase-dependent pathways” (Chinese Medicine, 2014).
≈ marks a conversion by molar mass, not a printed value.

Assays:
Vero cells = test: Neutral red cytotoxicity assay, Vero; type: cell-based, African green monkey; details: Chlorocebus sabaeus, 24 h, read-out: IC50 ± SD Vero
Experimental: (§1) Cell viability was measured by an NR colorimetric assay. Human HepG2 cells and normal African green monkey kidney Vero cells were used as cell models to determine the percent cytotoxicity. Briefly, cells (4 × 10^6 cells/mL) were treated with CF extract at various concentrations (10, 25, 50, 100, 250, and 500 μg/mL) and the standard anticancer drug melphalan as a positive control, while the untreated groups were exposed to fresh medium at equal volumes to those used for the treated groups. After 24 h of exposure, the cells were incubated for 2 h with NR dye (50 μg/mL) dissolved in DMEM, and then washed with phosphate-buffered saline (PBS; pH 7.4). Finally, the cells were lysed with 0.33% HCl/isopropanol. A microplate reader (Tecan, France) was used to measure the absorbances of NR dye in the viable cells at 520 and 650 (reference) nm. The percentage of cell cytotoxicity of the CF extract was calculated as described by Machana et al.[18] and compared with that of melphalan. The selectivity index (SI) was calculated to determine the selective cancer cell line cytotoxicity. The SI of the test compound was compared with the IC50 for the Vero cells divided by the IC50 for the HepG2 cells.

HepG2 cells [1] = test: DAPI staining apoptosis induction assay; type: cell-based, human; details: HepG2, 24 h, CF 120 μg/mL, melphalan 80 μg/mL (2 × IC50)
Experimental: Cells (1 × 10^6 cells/well) were treated with CF extract and the melphalan for 24 h at 2 × IC50, and the morphological changes of the induced apoptotic cells were determined by DAPI staining. The concentrations of CF extract and melphalan used in the following apoptosis experiments were 120 and 80 μg/mL, respectively. The cells were fixed in pure methanol at 4°C for 10 min, and then stained with DAPI (1 μg/mL) at room temperature in the dark. The excess dye was removed and glycerin was added to the cells with PBS at a 1:1 ratio and mixed well. Next, the cells were fixed on a slide and the apoptotic bodies observed at 40× objective magnification under an inverted fluorescence microscope (Eclipse TS100; Nikon, UK). The percentage of apoptotic cells was calculated as described by Machana et al.[18]. The average% apoptotic cells were calculated from three independent wells with 10 eye views in each well.

HepG2 cells [2] = test: Neutral red cytotoxicity assay, HepG2; type: cell-based, human
Experimental: as §1

HepG2 cells [3] = test: Mitochondrial membrane potential (DiOC6, flow cytometry); type: cell-based, human; details: HepG2, 35% (v/v) H2O2 positive control, 12 and 24 h, P < 0.001
Experimental: Cells (1 × 10^6 cells/mL) were seeded into a 24-well plate, incubated at 37°C for 24 h, and then treated with 0, 30, 60, or 120 μg/mL of CF extract for 12 or 24 h. Concentrated hydrogen peroxide (35%, v/v) was used as a positive control. Next, the cells were washed, harvested by trypsinization, transferred to a microcentrifuge tube, and stained with a lipophilic fluorogenic dye, DiOC6, at 40 nM for 30 min in the dark at 37°C. After the incubation, the cells were immediately analyzed by flow cytometry (BD FACSCanto II, San Jose, CA, USA) for incorporation of the fluorochrome.

## N[C@@H](Cc1ccc(N(CCCl)CCCl)cc1)C(=O)O [Melphalan, melphalan]
Vero cells
  IC50: 59.9 ± 3.2 µg/mL (≈ 196 µM)
HepG2 cells [1]
  Percentage of apoptotic cells: 41.6 ± 2.1%
HepG2 cells [2]; Homo sapiens, HepG2, 24 h, read-out: IC50 ± SD HepG2
  IC50: 37.7 ± 9.8 µg/mL (≈ 124 µM)
HepG2 cells [2]; IC50 for Vero cells divided by IC50 for HepG2 cells, SI > 3 indicates high selectivity
  Selectivity index (SI): 1.6

## OO [H2O2, hydrogen peroxide]
HepG2 cells [3]
  Alteration of MMP compared to untreated cells: significantly different
